Test results: patent US20060004029A1, “Nitrogen-containing aromatic derivatives” (priority 2003, published 2006)

Key:
[1] = system: Human Umbilical Vein Endothelial Cells (HUVECs); test: Inhibition against sandwich tube formation by vascular endothelial cells, VEGF-stimulated; format: cell-based; settings: HUVEC, 25 ng/ml VEGF and 10 ng/ml EGF, 4th day after addition
Procedure: (§1) Human Umbilical Vein Endothelial Cells (HUVECs) were isolated according to a reported method (Shinseikagaku Jikken Koza [New Biochemistry Experiment Lectures], “Saibo Baiyo Gijutsu” [Cell Culturing Techniques], p. 197-202), • and were cultured in a 5% CO2 incubator (37° C.) using EGM-2 medium (purchased from Clonetics Corp.) until the cells reached confluency.
(§2) An ice-cooled mixture of collagen: 5×RPMI 1640: reconstitution buffer (all purchased from Nitta Gelatin, Inc.) at 7:2:1 was dispensed at 0.4 ml into each well of a 24-well plate. After the solution was gelled by being stationed for 40 minutes in a 5% CO2 incubator (37° C.), HUVEC cell suspension was added at 0.4 ml to each well (using 1 to 1.2×10^5 cells, though the numbers of cells differ slightly according to the HUVEC lot), the HUVEC cell suspension being in human endothelial serum free medium (SFM, purchased from GIBCO BRL) containing added angiogenesis factors [20 ng/ml FGF2 (purchased from GIBCO BRL) and 10 ng/ml EGF (purchased from GIBCO BRL), or 25 ng/ml VEGF (purchased from Wako Pure Chemical Industries Co., Ltd.) and 10 ng/ml EGF, or 30 ng/ml HGF (purchased from R&D Co.) and 10 ng/ml EGF], and cultured overnight in a 5% CO2 incubator (37° C.). On the following day, the medium on the upper layer was aspirated off, and then 0.4 ml of an ice-cooled mixture of collagen: 5×RPMI 1640: reconstitution buffer (all purchased from Nitta Gelatin, Inc.) at 7:2:1 was superposed into each well prior to stationing for 4 hours in a 5% CO2 incubator (37° C.) for gelling. After adding 1.5 ml of an SFM solution containing each of the aforementioned angiogenesis factors and a diluted test substance onto the upper layer, culturing was performed in a 5% CO2 incubator (37° C.). Upon aspirating off the culture supernatant in each well on the 4th day after addition of the test substance, 0.4 ml of a 3.3 mg/ml MTT solution dissolved in PBS (purchased from Sigma Corp.) was added to each well and culturing was performed for approximately 2 hours in a 5% CO2 incubator (37° C.). The tubes formed in the collagen gel of each well were stained by MTT, the tube images were loaded into a computer (Macintosh), and the total length of the tubes was determined by image analysis software “MacScope” (purchased from Mitani Corp.). The ratio of the total length of the tubes formed in the well containing the test substance with respect to the total length of the tubes formed in the well containing no test substance was expressed as a percentage, and the concentration of each test substance required for 50% inhibition of tube formation (IC50) was determined from the ratio value.

VEGFR2 = target: T1, VEGFR2 (Homo sapiens, UniProt P35968); test: Inhibition against receptor tyrosine kinase activity (HTRF), VEGFR2; format: biochemical; settings: His6-VEGFR2 cytoplasmic domain, biotin-poly(GT), HTRF; read-out: VEGFR2 kinase IC50
T1 construct: coding for the cytoplasmic domain, beginning with lysine 791 and including the termination codon; made in house; host or cells: Sf9 insect cells, baculovirus (pFastBacHis)
Procedure: This assay is used to determine inhibition of a test substance on tyrosine kinase activity. […] Expression in an appropriate expression system can produce a polypeptide with tyrosine kinase activity. […] The recombinant construct was transfected into insect cells (Spondoptea frugiperda9 (Sf9)) to prepare a recombinant Baculovirus.
For expression of the VEGFR2 tyrosine kinase, Sf9 cells were infected with the VEGFR2 recombinant virus and collected after 48 hours. The collected cells were rinsed with ice-cooled phosphate buffered saline (PBS) and then resuspended using 20 ml of ice-cooled Lysis Buffer (50 mM Tris-HCl (pH 8.5), 5 mM 2-mercaptoethanol, 100 mM KCl, 1 mM phenylmethylsulfonyl fluoride, 1% (v/v) NP-40) per 1.5×10^8 cells. The suspension was centrifuged at 12,000 rpm for 30 minutes at 4° C. and the supernatant was obtained. The supernatant was added to a Ni-NTA agarose column (3 ml, purchased from Qiagen) equilibrated with Buffer A {20 mM Tris-HCl (pH 8.5), 5 mM 2-mercaptoethanol, 500 mM KCl, 20 mM imidazole, 10% (v/v) glycerol}. The column was washed with 30 ml of Buffer A, and then with 6 ml of Buffer B {20 mM Tris-HCl (pH 8.5), 5 mM 2-mercaptoethanol, 1M KCl, 10% (v/v) glycerol}, and finally with 6 ml of Buffer A. After washing, it was eluted with 6 ml of Buffer C {20 mM Tris-HCl (pH 8.5), 5 mM 2-mercaptoethanol, 100 mM KCl, 100 mM imidazole, 10% (v/v) glycerol}. The eluate was placed on a dialysis membrane (purchased from Spectrum Laboratories) and dialyzed with a dialysis buffer {20 mM Tris-HCl (pH 7.5), 10% (v/v) glycerol, 1 mM dithiothreitol, 0.1 mM Na3VO4, 0.1 mM EGTA}. […] Using the same method for the cytoplasmic domains of FGFR1, PDGFRβ and HGFR yielded respective recombinant proteins fused with 6 histidine residues at the N-terminal (His6-FGFR1, His6-PDGFRβ or His6-HGFR).
The tyrosine kinase reaction was conducted as follows. […] Next, 10 μl of 4 μM ATP (diluted with distilled water) was added prior to incubation at 30° C. for 10 minutes, and then 10 μl of 500 mM EDTA (pH 8.0) was added.
The tyrosine phosphorylation rate for the biotin-poly(GT) was expressed as the delta F % value as described in the HTRF Standard Experiment Methods text by CIS Diagnostics Co. The delta F % value in the presence of the test substance was determined as a ratio (%) with the delta F % value with addition of His6-VEGFR2 in the absence of the test substance defined as 100% and the delta F % value in the absence of both the test substance and His6-VEGFR2 defined as 0%.

[2] = system: Human Umbilical Vein Endothelial Cells (HUVECs); test: Inhibition against sandwich tube formation by vascular endothelial cells, FGF2-stimulated; format: cell-based; settings: HUVEC, 20 ng/ml FGF2 and 10 ng/ml EGF, 4th day after addition
Procedure: as §1, §2

T1 sequence (P35968 786-1356 limits assumed): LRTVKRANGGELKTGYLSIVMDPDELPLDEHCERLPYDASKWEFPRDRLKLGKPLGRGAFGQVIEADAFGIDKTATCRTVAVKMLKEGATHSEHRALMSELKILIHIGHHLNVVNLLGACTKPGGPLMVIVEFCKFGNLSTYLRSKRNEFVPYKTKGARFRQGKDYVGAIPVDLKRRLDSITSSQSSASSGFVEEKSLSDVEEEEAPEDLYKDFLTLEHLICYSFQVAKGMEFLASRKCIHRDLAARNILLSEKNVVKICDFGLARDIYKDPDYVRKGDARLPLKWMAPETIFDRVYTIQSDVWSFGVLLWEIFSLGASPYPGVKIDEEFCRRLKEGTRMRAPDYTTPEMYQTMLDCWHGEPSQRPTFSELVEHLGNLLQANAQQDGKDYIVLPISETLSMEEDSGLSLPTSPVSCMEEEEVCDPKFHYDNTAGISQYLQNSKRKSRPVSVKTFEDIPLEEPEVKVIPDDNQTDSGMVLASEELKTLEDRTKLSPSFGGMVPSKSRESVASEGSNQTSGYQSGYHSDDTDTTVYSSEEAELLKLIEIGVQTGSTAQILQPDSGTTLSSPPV

Q: Which results are given for `CNC(=O)n1ccc2cc(Oc3ccnc(NC(=O)N4CCC(O)CC4)c3)ccc21` [Example 39, N1-Methyl-5-(2-((4-hydroxypiperidino)carbonyl)amino-4-pyridyl)oxy-1H-1-indolecarboxamide]?
A: IC50 [1]: 5.1 nM; IC50 (VEGFR2): 4.5 nM; IC50 [2]: 470 nM

Q: What does the source list for `CNC(=O)n1ccc2cc(Oc3ccnc(NC(=O)N4CCC(C)(O)CC4)c3)ccc21` [Example 41, 5-(2-(((4-Hydroxy-4-methylpiperidin-1-yl)carbonyl)amino)pyridin-4-yloxy)-1H-1-indole-1-carboxylic acid methylamide]?
A: IC50 [1]: 2.1 nM; IC50 (VEGFR2): 6.1 nM; IC50 [2]: 250 nM

Q: With `CNC(=O)n1ccc2cc(Oc3ccnc(NC(=O)N4CCC(N5CCCC5)CC4)c3)ccc21` [Example 46, N1-Methyl-5-(2-(((4-(pyrrolidin-1-yl)piperidin-1-yl)carbonyl)amino)pyridin-4-yloxy)-1H-1-indolecarboxamide] as the compound, how does the IC50 [1] read?
A: The IC50 was 7 nM.

Q: And the IC50 (VEGFR2)?
A: The IC50 was 32 nM.

Q: And the IC50 [2]?
A: The IC50 was 470 nM.

Q: What does the source list for `CNC(=O)n1ccc2cc(Oc3ccnc(NC(=O)N4CCC(N5CCCCC5)CC4)c3)ccc21` [Example 47, N1-Methyl-5-(2-(((4-(piperidin-1-yl)piperidin-1-yl)carbonyl)amino)pyridin-4-yloxy)-1H-1-indolecarboxamide]?
A: IC50 [1]: 5.8 nM; IC50 (VEGFR2): 40 nM; IC50 [2]: 120 nM

Q: How did the IC50 [1] turn out when `CNC(=O)n1ccc2cc(Oc3ccnc(NC(=O)N4CCOCC4)c3)ccc21` [Example 53, N4-(4-(1-(Methylamino)carbonyl-1H-5-indolyl)oxy-2-pyridyl)-4-morpholinecarboxamide] was run?
A: The IC50 was 6.7 nM.

Q: And the IC50 (VEGFR2)?
A: The IC50 was 3.8 nM.

Q: What about the IC50 [2] of the same compound?
A: Its IC50 is 440 nM.
